From ChEMBL document CHEMBL1142471, “Antioxidant capacity of human blood plasma and human urine: simultaneous evaluation of the ORAC index and ascorbic acid concentration employing pyrogallol red as probe” (Bioorg Med Chem, 2008)

What was measured:
Assay type in all cases: functional
[1] = Antioxidant activity assessed as oxygen radical absorbance capacity index value by fluorescein protection assay
[2] = Antioxidant activity assessed as oxygen radical absorbance capacity index value at 5 uM by pyrogallol red protection assay
[3] = Antioxidant activity assessed as oxygen radical absorbance capacity index value by pyrogallol red protection assay

Row | SMILES | Activity [1] | Activity [2] | Activity [3]
1 | O=C1O[C@H]([C@@H](O)CO)C(O)=C1O | 0.95 | 9.7 | –
2 | Oc1nc(O)c2nc(O)[nH]c2n1 | 0.72 | – | 0.02
3 | N[C@@H](CCC(=O)N[C@@H](CS)C(=O)NCC(=O)O)C(=O)O | 0.62 | – | –
